According to ChEMBL document CHEMBL5634136 (Eur J Med Chem, 2023):
One block for each compound: values may come before it.

Key:
[1] = Antiproliferative activity against mouse KC-0122 cells assessed as inhibition of cell growth incubated for 72 hrs by MTT assay; format: functional, cell-based; conditions: KC-0122, 72 h
[2] = Antiproliferative activity against mouse KC-0116 cells assessed as inhibition of cell growth incubated for 72 hrs by MTT assay; format: functional, cell-based; conditions: KC-0116, 72 h
A-431 = test: Antiproliferative activity against human A-431 cells harboring wild type EGFR assessed as inhibition of cell growth incubated for 72 hrs by MTT assay; format: functional, cell-based; conditions: A-431, 72 h
[3] = target: Epidermal growth factor receptor (Mus musculus) (UniProt Q01279); test: Inhibition of EGFR in mouse KC-0116 cells assessed as downregulation of EGFR phosphorylation level incubated for 24 hrs by Western blotting analysis; format: cell-based
HCC827 = test: Antiproliferative activity against human HCC827 cells harboring EGFR Del19 mutant assessed as inhibition of cell growth incubated for 72 hrs by MTT assay; format: functional, cell-based; conditions: HCC827, 72 h
HepG2 = test: Antiproliferative activity against human HepG2 cells harboring VEGFR assessed as inhibition of cell growth incubated for 72 hrs by MTT assay; format: functional, cell-based; conditions: HepG2, 72 h
[4] = target: Epidermal growth factor receptor (Mus musculus) (UniProt Q01279); test: Inhibition of EGFR in mouse KC-0116 cells assessed as downregulation of ERK protein expression level incubated for 24 hrs by Western blotting analysis; format: cell-based
[5] = target: Epidermal growth factor receptor (Mus musculus) (UniProt Q01279); test: Inhibition of EGFR in mouse KC-0122 cells assessed as downregulation of ERK protein expression level incubated for 24 hrs by Western blotting analysis; format: cell-based
[6] = target: Epidermal growth factor receptor (Mus musculus) (UniProt Q01279); test: Inhibition of EGFR in mouse KC-0116 cells assessed as downregulation of AKT protein expression level incubated for 24 hrs by Western blotting analysis; format: cell-based
NCI-H1975 = test: Antiproliferative activity against human NCI-H1975 cells harboring EGFR L858R/T790M mutant assessed as inhibition of cell growth incubated for 72 hrs by MTT assay; format: functional, cell-based; conditions: NCI-H1975, 72 h
[7] = target: Epidermal growth factor receptor (Mus musculus) (UniProt Q01279); test: Inhibition of EGFR in mouse KC-0122 cells assessed as downregulation of AKT protein expression level incubated for 24 hrs by Western blotting analysis; format: cell-based
[8] = target: Epidermal growth factor receptor (Mus musculus) (UniProt Q01279); test: Inhibition of EGFR in mouse KC-0122 cells assessed as downregulation of EGFR phosphorylation level incubated for 24 hrs by Western blotting analysis; format: cell-based
[9] = Induction of apoptosis in mouse KC-0116 cells assessed as necrotic cells at 0.3 uM incubated for 48 hrs by annexin V-FITC/ PI staining based flow cytometry (reference value: 0.04 %); format: functional
[10] = Toxicity in BALB/c mouse xenografted with mouse KC-0116 cells assessed as change in body weight at 10 mg/kg,po administrated once daily for 10 days; format: organism-based; conditions: in vivo, 240 h, time 10 day
[11] = Induction of apoptosis in mouse KC-0116 cells assessed as early apoptotic cells at 1 uM incubated for 48 hrs by annexin V-FITC/ PI staining based flow cytometry (reference value: 8.09 %); format: functional
[12] = Induction of apoptosis in mouse KC-0116 cells assessed as necrotic cells at 1 uM incubated for 48 hrs by annexin V-FITC/ PI staining based flow cytometry (reference value: 0.04 %); format: functional
[13] = Induction of apoptosis in mouse KC-0116 cells assessed as viable cells at 0.3 uM incubated for 48 hrs by annexin V-FITC/ PI staining based flow cytometry (reference value: 93.27 %); format: functional
[14] = Induction of apoptosis in mouse KC-0116 cells assessed as late apoptotic cells at 1 uM incubated for 48 hrs by annexin V-FITC/ PI staining based flow cytometry (reference value: 1 %); format: functional
[15] = Induction of apoptosis in mouse KC-0116 cells assessed as late apoptotic cells at 0.3 uM incubated for 48 hrs by annexin V-FITC/ PI staining based flow cytometry (reference value: 1 %); format: functional
[16] = Induction of apoptosis in mouse KC-0116 cells assessed as viable cells at 1 uM incubated for 48 hrs by annexin V-FITC/ PI staining based flow cytometry (reference value: 93.27 %); format: functional
[17] = Induction of apoptosis in mouse KC-0116 cells assessed as early apoptotic cells at 0.3 uM incubated for 48 hrs by annexin V-FITC/ PI staining based flow cytometry (reference value: 8.09 %); format: functional

Epidermal growth factor receptor (Mus musculus), sequence (Q01279 whole entry): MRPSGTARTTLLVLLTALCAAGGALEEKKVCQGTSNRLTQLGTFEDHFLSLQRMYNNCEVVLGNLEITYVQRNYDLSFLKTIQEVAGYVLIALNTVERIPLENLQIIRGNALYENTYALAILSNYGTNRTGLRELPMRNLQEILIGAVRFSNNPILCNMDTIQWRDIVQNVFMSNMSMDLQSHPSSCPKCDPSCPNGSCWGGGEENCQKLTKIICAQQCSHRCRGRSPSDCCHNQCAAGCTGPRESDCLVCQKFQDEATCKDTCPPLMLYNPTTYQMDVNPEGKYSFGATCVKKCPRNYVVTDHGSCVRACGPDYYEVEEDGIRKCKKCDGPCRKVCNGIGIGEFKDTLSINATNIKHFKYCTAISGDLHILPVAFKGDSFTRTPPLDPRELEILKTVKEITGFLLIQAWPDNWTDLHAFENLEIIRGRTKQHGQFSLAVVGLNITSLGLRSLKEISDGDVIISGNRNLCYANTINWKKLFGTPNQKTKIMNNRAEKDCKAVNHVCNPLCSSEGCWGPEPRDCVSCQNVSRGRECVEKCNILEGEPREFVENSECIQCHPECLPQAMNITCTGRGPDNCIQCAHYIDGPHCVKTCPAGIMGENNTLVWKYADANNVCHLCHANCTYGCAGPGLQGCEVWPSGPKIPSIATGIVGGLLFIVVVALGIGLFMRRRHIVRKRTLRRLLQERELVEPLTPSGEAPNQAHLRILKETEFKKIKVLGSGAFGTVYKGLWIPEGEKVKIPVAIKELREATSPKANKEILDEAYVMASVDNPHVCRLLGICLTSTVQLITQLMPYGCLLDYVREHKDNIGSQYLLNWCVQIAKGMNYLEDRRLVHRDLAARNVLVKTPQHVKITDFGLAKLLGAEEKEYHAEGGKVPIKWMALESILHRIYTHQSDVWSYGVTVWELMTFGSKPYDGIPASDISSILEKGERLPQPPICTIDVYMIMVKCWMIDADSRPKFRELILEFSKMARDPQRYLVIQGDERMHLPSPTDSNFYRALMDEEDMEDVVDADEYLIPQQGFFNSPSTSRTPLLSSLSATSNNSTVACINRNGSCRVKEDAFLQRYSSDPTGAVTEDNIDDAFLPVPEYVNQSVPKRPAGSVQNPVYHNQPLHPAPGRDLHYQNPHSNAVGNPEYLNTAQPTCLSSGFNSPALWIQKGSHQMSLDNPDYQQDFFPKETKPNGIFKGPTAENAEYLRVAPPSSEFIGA

SMILES: Cn1cc(-c2ccnc(Nc3ccc(N4CCOCC4)cc3)n2)c2ccccc21
IC50 [1]: > 10 µM | IC50 [2]: 7 µM

SMILES: COc1ccc(NC(=O)CCN)cc1Nc1nccc(-c2cn(C)c3ccccc23)n1
IC50 [1]: 1.23 µM | IC50 [2]: 1.46 µM

SMILES: COCC(=O)Nc1cc(Nc2nccc(-c3cn(C)c4ccccc34)n2)c(OC)cc1N1CCC(N(C)C)CC1
IC50 [1]: 0.45 µM | IC50 [2]: 0.46 µM

SMILES: COc1cc(N(C)CCN(C)C)c(NC(=O)CO)cc1Nc1nccc(-c2cn(C)c3ccccc23)n1
IC50 [1]: 3.09 µM | IC50 [2]: 1.39 µM

SMILES: COc1cc(N(C)CCN(C)C)c(NC(=O)CNS(C)(=O)=O)cc1Nc1nccc(-c2cn(C)c3ccccc23)n1
IC50 [1]: 1.17 µM | IC50 [2]: 1.55 µM

SMILES: COc1cc(N(C)CCN(C)C)c(NC(=O)CNC(=O)OC(C)(C)C)cc1Nc1nccc(-c2cn(C)c3ccccc23)n1
IC50 [1]: 1.28 µM | IC50 [2]: 1.29 µM

SMILES: CN1CCN(c2ccc(Nc3nccc(-c4cn(C)c5ccccc45)n3)cc2)CC1
IC50 [1]: 0.54 µM | IC50 [2]: 0.38 µM

SMILES: COc1cc(N2CCN(C)CC2)c(NC(=O)CN)cc1Nc1nccc(-c2cn(C)c3ccccc23)n1
IC50 [1]: 1.17 µM | IC50 [2]: 1.65 µM

IC50 (A-431): 2.13 µM | inhibition [3]: Dose-Dependent Effect | IC50 (HCC827): 0.31 µM | IC50 (HepG2): 1.5 µM | inhibition [4]: Dose-Dependent Effect | inhibition [5]: Dose-Dependent Effect | inhibition [6]: Dose-Dependent Effect | IC50 (NCI-H1975): 1.02 µM | inhibition [7]: Dose-Dependent Effect | inhibition [8]: Dose-Dependent Effect
SMILES: CN1CCN(C2CCN(c3ccc(Nc4nccc(-c5cn(C)c6ccccc56)n4)cc3NS(=O)(=O)C3CC3)CC2)CC1
IC50 [1]: 0.2 µM | IC50 [2]: 0.17 µM

SMILES: COc1cc(N(C)CCN(C)C)c(NC(=O)CNC(C)=O)cc1Nc1nccc(-c2cn(C)c3ccccc23)n1
IC50 [1]: 1.45 µM | IC50 [2]: 1.98 µM

SMILES: COc1cc2c(cc1Nc1nccc(-c3cn(C)c4ccccc34)n1)NC(=O)CCCCCN2CCN(C)C
IC50 [1]: 2.84 µM | IC50 [2]: 2.36 µM

SMILES: CN(C)CCN(C)c1ccc(Nc2nccc(-c3cn(C)c4ccccc34)n2)cc1
IC50 [1]: 1.55 µM | IC50 [2]: 1.06 µM

SMILES: Cn1cc(-c2ccnc(Nc3ccc(N4CCC(N5CCOCC5)CC4)cc3)n2)c2ccccc21
IC50 [1]: 5.74 µM | IC50 [2]: 1.71 µM

SMILES: COc1cc(N(C)CCN(C)C)c(NC(=O)CCN)cc1Nc1nccc(-c2cn(C)c3ccccc23)n1
IC50 [1]: 1.63 µM | IC50 [2]: 1.49 µM

SMILES: COc1cc(N2CCC(N3CCN(C)CC3)CC2)ccc1Nc1ncc(Cl)c(Nc2ccccc2P(C)(C)=O)n1 [BRIGATINIB]
Activity [9]: 0.01% | Activity [10]: Non-Toxic | Activity [11]: 26.61% | Activity [12]: 0.32% | Activity [13]: 92.51% | IC50 [1]: 0.45 µM | Activity [14]: 7.32% | IC50 [2]: 0.35 µM | Activity [15]: 1.71% | Activity [16]: 65.74% | Activity [17]: 6.75%

SMILES: Cn1cc(-c2ccnc(Nc3cccc(NS(=O)(=O)C4CC4)c3)n2)c2ccccc21
IC50 [1]: 1.2 µM | IC50 [2]: 0.58 µM

SMILES: COc1cc(N(C)CCN(C)C)c(NC(=O)CN)cc1Nc1nccc(-c2cn(C)c3ccccc23)n1
IC50 [1]: 2.72 µM | IC50 [2]: 1.32 µM

IC50 (A-431): 2.49 µM | IC50 (HCC827): 0.22 µM | IC50 (HepG2): 1.92 µM | IC50 (NCI-H1975): 1.42 µM
SMILES: CN(C)C1CCN(c2ccc(Nc3nccc(-c4cn(C)c5ccccc45)n3)cc2NS(=O)(=O)C2CC2)CC1
IC50 [1]: 0.25 µM | IC50 [2]: 0.24 µM

SMILES: COc1cc(OCCN(C)C)c(NC(=O)CN)cc1Nc1nccc(-c2cn(C)c3ccccc23)n1
IC50 [1]: 5.45 µM | IC50 [2]: 1.5 µM

SMILES: CN(C)C1CCN(c2ccc(Nc3nccc(-n4cc(NC(=O)c5ccccc5)cn4)n3)cc2NS(C)(=O)=O)CC1
IC50 [1]: 0.49 µM | IC50 [2]: 0.52 µM

SMILES: CC(=O)N1CCN(c2ccc(Nc3nccc(-c4cn(C)c5ccccc45)n3)cc2)CC1
IC50 [1]: 1.5 µM | IC50 [2]: 1.05 µM

SMILES: CN1CCN(C2CCN(c3ccc(Nc4nccc(-c5cn(C)c6ccccc56)n4)cc3)CC2)CC1
IC50 [1]: 1.31 µM | IC50 [2]: 0.84 µM

SMILES: CN(C)C1CCN(c2ccc(Nc3nccc(-c4cn(C)c5ccccc45)n3)cc2NC(=O)CN)CC1
IC50 [1]: 0.46 µM | IC50 [2]: 0.44 µM

SMILES: CN(C)C1CCN(c2ccc(Nc3nccc(-c4cn(C)c5ccccc45)n3)cc2)CC1
IC50 [1]: 0.45 µM | IC50 [2]: 0.4 µM

SMILES: CN(C)CCOc1ccc(Nc2nccc(-c3cn(C)c4ccccc34)n2)cc1
IC50 [1]: 1.75 µM | IC50 [2]: 1.29 µM

SMILES: CN(C)CCN(c1ccc(Nc2nccc(-c3cn(C)c4ccccc34)n2)cc1)S(C)(=O)=O
IC50 [1]: 0.5 µM | IC50 [2]: 0.43 µM

SMILES: COc1cc(N2CCC(N3CCN(C)CC3)CC2)ccc1Nc1nccc(-c2cn(C)c3ccccc23)n1
IC50 [1]: 1.39 µM | IC50 [2]: 1.17 µM

SMILES: COc1cc(N2CCC(N(C)C)CC2)c(NC(=O)CO)cc1Nc1nccc(-c2cn(C)c3ccccc23)n1
IC50 [1]: 0.48 µM | IC50 [2]: 0.46 µM

SMILES: C=CC(=O)Nc1cc(Nc2nccc(-c3cn(C)c4ccccc34)n2)c(OC)cc1N(C)CCN(C)C [OSIMERTINIB]
IC50 (A-431): […] | IC50 (HCC827): 0.001 µM | IC50 (HepG2): 3.06 µM | IC50 [2]: […]

SMILES: COc1cc(N(C)CCN(C)C)ccc1Nc1nccc(-c2cn(C)c3ccccc23)n1
IC50 [1]: 1.61 µM | IC50 [2]: 1.76 µM

SMILES: COc1ccc(NC(=O)CN)cc1Nc1nccc(-c2cn(C)c3ccccc23)n1
IC50 [1]: 5.28 µM | IC50 [2]: 3.76 µM

SMILES: Cn1cc(-c2ccnc(Nc3ccc(N4CCCCC4)cc3)n2)c2ccccc21
IC50 [1]: > 10 µM | IC50 [2]: > 10 µM

SMILES: Cn1cc(-c2ccnc(Nc3cccc(NC(=O)CCN)c3)n2)c2ccccc21
IC50 [1]: 4.77 µM | IC50 [2]: 4.99 µM
